Source: EPA's ToxValDB 9.5

Assays:
Rattus norvegicus [1] = details: oral
Rattus norvegicus [2] = details: oral, gavage
Rattus norvegicus [3] = experiment: FEL; higher = less toxic; details: duration: 14 days, oral, gavage, Crl:CD(SD)
[4] = acute, gavage, M, Wistar, Central Nervous System: Novel object recognition test
[5] = chronic, duration: 110 days, gavage, M, Sprague-Dawley, Adrenal: Progesterone (P4)
[6] = chronic, duration: 110 days, gavage, M, Sprague-Dawley, Kidney: Blood Urea Nitrogen (BUN) + Kidney: Creatinine (CREAT), Blood + Liver: Alkaline Phosphatase (ALP), Blood + Liver: Bile Acids, Blood
[7] = chronic, duration: 110 days, gavage, M, Sprague-Dawley, Liver: Liver Histopathology + Liver: Triglycerides (TRIG), Blood
[8] = chronic, duration: 110 days, gavage, M, Sprague-Dawley, Liver: Total Bilirubin (TBILI), Blood + Whole Body: Body Weight Change (0-110d) + Whole Body: Body Weight Change (60-90d) + Whole Body: Body…
[9] = chronic, duration: 110 days, gavage, M, Sprague-Dawley, Testis: Testes, Non-Neoplastic Lesions + Whole Body: Body Weight, Absolute
[10] = chronic, duration: 110 days, gavage, M, Sprague-Dawley, Testis: Testosterone (T)
[11] = reproduction developmental, duration: 14 days, gavage, F, Crl:CD(SD), generation: P0, P0: Heart: Heart Weight, Absolute + P0: Liver: Liver Weight, Relative + P0: Pituitary: Pituitary Gland Weight, Absolute + P0: Spleen: Spleen…
[12] = reproduction developmental, duration: 42 days, gavage, M, Crl:CD(SD), generation: P0, P0: Adrenal Gland: Adrenal Gland, Atrophy of the cortex + P0: Adrenal: Adrenal Gland Weight, Absolute + P0: Blood: Albumin/Globulin (A/G) …
[13] = reproduction developmental, duration: 42 days, gavage, M, Crl:CD(SD), generation: P0, P0: Liver: Alkaline Phosphatase (ALP) + P0: Liver: Liver Weight, Relative + P0: Protein Fraction, Globulin alpha-2
[14] = short-term, duration: 2 weeks, gavage, M, Sprague-Dawley, Adrenal: Estradiol + Adrenal: Testosterone (T) + Testis: Testes Weight, Relative + Whole Body: Body Weight, Absolute
[15] = short-term, duration: 2 weeks, gavage, M, Sprague-Dawley, Liver: Cholesterol (CHOL), Total + Liver: Triglycerides (TRIG), Liver + Liver: Triglycerides (TRIG), Serum
[16] = short-term, duration: 2 weeks, gavage, M, Sprague-Dawley, Liver: Cholesterol (CHOL), Total + Pituitary: Leuteinizing hormone (LH) + Testis: Testes Weight, Absolute
[17] = short-term, duration: 2 weeks, gavage, M, Sprague-Dawley, Liver: Liver Weight, Absolute + Liver: Liver Weight, Relative
[18] = short-term, duration: 28 days, F, Sprague-Dawley, Multi-Organ: Cholesterol (CHOL), Total + Multi-Organ: Estradiol + Whole Body: Body Weight, Absolute
[19] = chronic, duration: 110 days, M, Sprague-Dawley, Reproductive: Decreased serum testosterone (44%)
[20] = developmental, duration: 47 days, M/F, Sprague-Dawley, Body Weight: Decreased body weight gain (20-30%) + Developmental: Decreases in pup body weight (only one litter had live pups) + Endocrine: …
[21] = short-term, duration: 14 days, M, Sprague-Dawley, Body Weight: 25% reduction in final body weight + Reproductive: Decreased serum testosterone (38%) and estradiol (~38%), and ultrastructural…
[22] = short-term, duration: 28 days, F, Sprague-Dawley, Endocrine: 40% reduced serum estradiol in pubertal females
[23] = subchronic, duration: 47 days, F, Sprague-Dawley, Hepatic: Single cell necrosis in females / hepatocellular hypertrophy in males and females at […] / bile duct proliferation at […] in …

O=C(O)C(F)(F)C(F)(F)C(F)(F)C(F)(F)C(F)(F)C(F)(F)C(F)(F)C(F)(F)C(F)(F)C(F)(F)C(F)(F)F [Perfluorododecanoic acid]
NOAEL (Rattus norvegicus [1]; acute, gavage, M, Wistar, Brain: Brain Weight, Absolute + Central Nervous System: Elevated platform test (elevated plus test) + Central Nervous System: Forced Swim …): 50 mg/kg-day
LOAEL (Rattus norvegicus [1]; acute, gavage, M, Wistar, Brain: Brain Weight, Relative + Central Nervous System: Elevated platform test (elevated plus test) + Central Nervous System: Novel object …): 50 mg/kg-day
LOAEL (Rattus norvegicus [1]; [4]): 20 mg/kg-day
NOAEL (Rattus norvegicus [1]; [4]): 5 mg/kg-day
LOAEL (Rattus norvegicus [1]; [5]): 0.2 mg/kg-day
NOAEL (Rattus norvegicus [1]; [5]): 0.02 mg/kg-day
LOAEL (Rattus norvegicus [1]; [6]): 0.2 mg/kg-day
NOAEL (Rattus norvegicus [1]; [6]): 0.05 mg/kg-day
LOAEL (Rattus norvegicus [1]; chronic, duration: 110 days, gavage, M, Sprague-Dawley, Kidney: Creatine Kinase (CK), Blood + Liver: Albumin (A), Blood + Liver: Liver Weight, Absolute + Liver: Liver Weight, Relative + Liver: Low…): 0.02 mg/kg-day
NOAEL (Rattus norvegicus [1]; chronic, duration: 110 days, gavage, M, Sprague-Dawley, Leuteinizing hormone (LH) + Pancreas: Insulin + Pituitary: Follicle stimulating hormone (FSH) + Pituitary: Growth Hormone + Prostate: …): 0.5 mg/kg-day
NOAEL (Rattus norvegicus [1]; chronic, duration: 110 days, gavage, M, Sprague-Dawley, Liver: Alanine Aminotransferase (ALT), Blood + Liver: Aspartate Aminotransferase (AST), Blood + Liver: Cholesterol (CHOL), Total, Blood + …): 0.5 mg/kg-day
LOAEL (Rattus norvegicus [1]; [7]): 0.05 mg/kg-day
NOAEL (Rattus norvegicus [1]; [7]): 0.02 mg/kg-day
LOAEL (Rattus norvegicus [1]; [8]): 0.5 mg/kg-day
NOAEL (Rattus norvegicus [1]; [8]): 0.2 mg/kg-day
LOAEL (Rattus norvegicus [1]; [9]): 0.5 mg/kg-day
NOAEL (Rattus norvegicus [1]; [9]): 0.2 mg/kg-day
LOAEL (Rattus norvegicus [1]; [10]): 0.2 mg/kg-day
NOAEL (Rattus norvegicus [1]; [10]): 0.05 mg/kg-day
NOAEL (Rattus norvegicus [1]; developmental, duration: 14 days, gavage, F, Crl:CD(SD), generation: F1, F1: Whole Body: Body Weight, Fetal, PND0 + F1: Whole Body: Body Weight, Fetal, PND1 + F1: Whole Body: Body Weight, Fetal, PND4): 0.5 mg/kg-day
NOAEL (Rattus norvegicus [1]; developmental, duration: 14 days, gavage, M, Crl:CD(SD), generation: F1, F1: Whole Body: Body Weight, Fetal, PND0 + F1: Whole Body: Body Weight, Fetal, PND1 + F1: Whole Body: Body Weight, Fetal, PND4): 0.5 mg/kg-day
NOAEL (Rattus norvegicus [1]; reproduction developmental, duration: 14 days, gavage, F, Crl:CD(SD), generation: P0, P0: Adrenal Gland: Adrenal Gland, Atrophy of the cortex + P0: Bone Marrow: Bone Marrow, Decrease in hematopoiesis + P0: Forestomach: …): 2.5 mg/kg-day
NOAEL (Rattus norvegicus [1]; reproduction developmental, duration: 14 days, gavage, F, Crl:CD(SD), generation: P0, P0: Adrenal: Adrenal Gland Weight, Absolute + P0: Adrenal: Adrenal Gland Weight, Relative + P0: Blood: Activated Partial Thromboplastin Time…): 0.5 mg/kg-day
LOAEL (Rattus norvegicus [1]; reproduction developmental, duration: 14 days, gavage, F, Crl:CD(SD), generation: P0, P0: Blood: Hematocrit (HCT) + P0: Blood: Hematocrit (HCT), Recovery + P0: Blood: Hemoglobin (HGB), Recovery + P0: Blood: Mean Corpuscular …): 2.5 mg/kg-day
LOAEL (Rattus norvegicus [1]; [11]): 0.5 mg/kg-day
NOAEL (Rattus norvegicus [1]; [11]): 0.1 mg/kg-day
LOAEL (Rattus norvegicus [1]; reproduction developmental, duration: 14 days, gavage, F, Crl:CD(SD), generation: P0, P0: Multi-Organ: Protein Fraction, Albumin): 0.1 mg/kg-day
NOAEL (Rattus norvegicus [1]; reproduction developmental, duration: 14 days, gavage, M/F, Crl:CD(SD), generation: F1, F1: Uterus: Fetuses, Dead + F1: Uterus: Fetuses, Live + F1: Whole Body: Live Birth Index + F1: Whole Body: Live Pups on Lactation Day 4 + F1…): 0.5 mg/kg-day
LOAEL (Rattus norvegicus [1]; [12]): 2.5 mg/kg-day
NOAEL (Rattus norvegicus [1]; [12]): 0.5 mg/kg-day
NOAEL (Rattus norvegicus [1]; reproduction developmental, duration: 42 days, gavage, M, Crl:CD(SD), generation: P0, P0: Adrenal: Adrenal Gland Weight, Relative + P0: Basophils + P0: Blood: Activated Partial Thromboplastin Time (APTT) + P0: Blood: …): 2.5 mg/kg-day
LOAEL (Rattus norvegicus [1]; [13]): 0.5 mg/kg-day
NOAEL (Rattus norvegicus [1]; [13]): 0.1 mg/kg-day
LOAEL (Rattus norvegicus [1]; [14]): 5 mg/kg-day
NOAEL (Rattus norvegicus [1]; [14]): 1 mg/kg-day
LOAEL (Rattus norvegicus [1]; [15]): 10 mg/kg-day
NOAEL (Rattus norvegicus [1]; [15]): 5 mg/kg-day
LOAEL (Rattus norvegicus [1]; [16]): 10 mg/kg-day
NOAEL (Rattus norvegicus [1]; [16]): 5 mg/kg-day
LOAEL (Rattus norvegicus [1]; [17]): 5 mg/kg-day
NOAEL (Rattus norvegicus [1]; [17]): 1 mg/kg-day
NOAEL (Rattus norvegicus [1]; short-term, duration: 2 weeks, gavage, M, Sprague-Dawley, Pituitary: Follicle stimulating hormone (FSH)): 10 mg/kg-day
NOAEL (Rattus norvegicus [1]; short-term, duration: 28 days, F, Sprague-Dawley, Leuteinizing hormone (LH) + Multi-Organ: Follicle stimulating hormone (FSH) + Ovary: Follicle Count, Antral + Ovary: Follicle Count, …): 3 mg/kg-day
LOAEL (Rattus norvegicus [1]; [18]): 3 mg/kg-day
NOAEL (Rattus norvegicus [1]; [18]): 1.5 mg/kg-day
LOAEL (Rattus norvegicus [2]; acute, duration: 1 days, M, Wistar, Body Weight: 44% decrease in body weight gain (measured 10-days post-exposure) + Neurological: Impaired performance on novel object …): 50 mg/kg-day
NOAEL (Rattus norvegicus [2]; acute, duration: 1 days, M, Wistar, Neurological: No alterations in open field activity + Neurological: No alterations in tests of working memory or depressive behavior): 50 mg/kg-day
NOAEL (Rattus norvegicus [2]; chronic, duration: 110 days, M, Sprague-Dawley): 0.5 mg/kg-day
LOAEL (Rattus norvegicus [2]; [19]): 0.2 mg/kg-day
NOAEL (Rattus norvegicus [2]; [19]): 0.05 mg/kg-day
LOAEL (Rattus norvegicus [2]; [20]): 2.5 mg/kg-day
NOAEL (Rattus norvegicus [2]; [20]): 0.5 mg/kg-day
LOAEL (Rattus norvegicus [2]; [21]): 5 mg/kg-day
NOAEL (Rattus norvegicus [2]; [21]): 1 mg/kg-day
NOAEL (Rattus norvegicus [2]; short-term, duration: 14 days, M, Sprague-Dawley, Hepatic: 35% increase in total serum cholesterol at 10 mg/kg/day): 10 mg/kg-day
NOAEL (Rattus norvegicus [2]; short-term, duration: 14 days, M, Sprague-Dawley, Hepatic: Increased liver weight, increased hepatic triglyceride and cholesterol levels at ?5 mg/kg/day / increased serum triglyceride …): 10 mg/kg-day
LOAEL (Rattus norvegicus [2]; [22]): 3 mg/kg-day
NOAEL (Rattus norvegicus [2]; [22]): 1 mg/kg-day
LOAEL (Rattus norvegicus [2]; subchronic, duration: 47 days, F, Sprague-Dawley, Death: 58% mortality): 2.5 mg/kg-day
LOAEL (Rattus norvegicus [2]; [23]): 2.5 mg/kg-day
NOAEL (Rattus norvegicus [2]; [23]): 0.5 mg/kg-day
NOAEL (Rattus norvegicus [2]; subchronic, duration: 47 days, M/F, Sprague-Dawley): 2.5 mg/kg-day
FEL (Rattus norvegicus [3]; developmental, F, generation: F1, F1: Whole Body: Body Weight, Fetal, PND0 + F1: Whole Body: Body Weight, Fetal, PND1 + F1: Whole Body: Body Weight, Fetal, PND4): 2.5 mg/kg-day
FEL (Rattus norvegicus [3]; developmental, M, generation: F1, F1: Whole Body: Body Weight, Fetal, PND1 + F1: Whole Body: Body Weight, Fetal, PND4): 2.5 mg/kg-day
FEL (Rattus norvegicus [3]; reproduction developmental, F, generation: P0, P0: Adrenal: Adrenal Gland Weight, Absolute + P0: Adrenal: Adrenal Gland Weight, Relative + P0: Blood: Albumin/Globulin (A/G) Ratio + P0: …): 2.5 mg/kg-day
FEL (Rattus norvegicus [3]; reproduction developmental, M/F, generation: F1, F1: Uterus: Fetuses, Dead + F1: Whole Body: Live Birth Index + F1: Whole Body: Male Pups per Pups Sexed + F1: Whole Body: Number of litters): 2.5 mg/kg-day
